Test results: patent US5843916A, “Cyclic amp analogues, individually and in pairs, to inhibit neoplastic cell growth” (priority 1994, dated 1998)
Entries after “also recorded” stand apart in the source; their conditions may differ. Read-outs that look alike come from different tables or passages of the source.

What was measured:
[1] = biological target: T1, RII, regulatory subunit of cAMP-dependent protein kinase type II (Bos taurus, UniProt P00515); assay: Binding affinity for RII (Table 14)
T1 construct: from tissue
T1 sequence (P00515 whole entry): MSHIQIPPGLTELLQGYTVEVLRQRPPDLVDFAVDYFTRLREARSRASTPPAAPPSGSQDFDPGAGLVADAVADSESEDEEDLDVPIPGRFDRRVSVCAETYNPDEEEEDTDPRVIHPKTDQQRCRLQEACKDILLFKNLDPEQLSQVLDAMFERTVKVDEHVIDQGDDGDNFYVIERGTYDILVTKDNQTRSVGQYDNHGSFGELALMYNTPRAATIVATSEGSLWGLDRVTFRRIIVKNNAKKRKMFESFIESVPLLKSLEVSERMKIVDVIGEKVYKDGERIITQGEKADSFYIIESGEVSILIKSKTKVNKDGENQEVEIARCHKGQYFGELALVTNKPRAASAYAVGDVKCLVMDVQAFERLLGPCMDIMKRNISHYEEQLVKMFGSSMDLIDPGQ
Description: (§1) RI and RII are the regulatory subunits of cAMP-dependent protein
(§2) kinase type I and type II, respectively. Site A (Site 2) and Site B
(§3) (RI and RII): the affinities of analogues for Site A and Site B were
(§4) determined by the measurement of kinetic constants (inhibition constant,
(§5) Ki), and the values are expressed as the relative affinity Ki
(§6) (analogue), i.e., the ratio between the apparent inhibition constant for
(§7) cAMP and the analogue, as described in Ogreid et al., Eur. J. Biochem.

[2] = system: cAMP-phosphodiesterase (PDE); conditions: no test described; cited from earlier work
[3] = biological target: T2, RI, regulatory subunit of cAMP-dependent protein kinase type I (Oryctolagus cuniculus, UniProt G1TDN4); assay: Binding affinity for RI (Table 14)
T2 construct: from tissue
T2 sequence (G1TDN4 1-381): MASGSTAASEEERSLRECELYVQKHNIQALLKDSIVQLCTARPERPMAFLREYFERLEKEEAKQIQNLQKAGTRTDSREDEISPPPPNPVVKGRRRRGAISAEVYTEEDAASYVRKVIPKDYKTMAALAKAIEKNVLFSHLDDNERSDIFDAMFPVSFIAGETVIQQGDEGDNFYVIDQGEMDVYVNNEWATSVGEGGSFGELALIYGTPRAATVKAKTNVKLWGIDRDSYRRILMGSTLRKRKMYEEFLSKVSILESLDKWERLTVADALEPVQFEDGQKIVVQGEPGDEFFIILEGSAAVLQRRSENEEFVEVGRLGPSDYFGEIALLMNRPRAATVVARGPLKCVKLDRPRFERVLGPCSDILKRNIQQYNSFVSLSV
Description: as §1, §2, §3, §4, §5, §6, §7

[4] = system: RI, regulatory subunit of cAMP-dependent protein kinase type I; assay: Binding affinity for RI (Table 14); conditions: compared with 8-Cl-cAMP
Description: as §1, §2, §3, §4, §5, §6, §7

HL-60 leukemia cells = assay: Surface antigen expression of HL-60 cells (Example 5); type: cell-based, human; conditions: Homo sapiens, HL-60, 72 h
Description: (§8) Briefly, cells were fixed in 70% ethanol and stored at 4° C. before analysis. Nuclear DNA was stained with propidium iodide, 50 μg/ml in phosphate-buffered saline (pH 7.4), for 30 minutes at room temperature. RNase was added to avoid double-helix RNA staining. The DNA content of cells was analyzed by a FACScan flow cytometer coupled with a Hewlett-Packard computer. Cell cycle data analysis was performed by a Cell-FIT program according to the method of Dean (Cell Tissue Kinet. 13: 299-308 (1980)) (Becton Dickinson Immunocytometry Systems). Pulse area versus pulse width gating was performed to exclude doublets from the G2 -M region. For each sample, 20,000 events were stored in list mode. Cell surface antigen analysis was performed by flow cytometry with FACScan using a panel of monoclonal antibodies reactive with either monocytic or myeloid cells.
The effect of Rp- and Sp-8-Cl-cAMPS on the expression of differentiation markers in HL-60 cells was examined to determine if the growth-arrested HL-60 cells are more differentiated than untreated cells. […] For each sample, 2×10^4 cells were analyzed. Cell surface antigen analysis was performed by flow cytometry with FACScan. Cell gating was performed using forward and side scatter.

[5] = system: LS-174T human colon carcinoma cells; assay: Growth inhibition of LS-174T cells (Example 4, Table 18); type: cell-based
Description: LS-174T human colon carcinoma cells were obtained from the National Cancer Institute, Division of Cancer Treatment, Bethesda, Md., and were grown in Eagle's minimum essential medium supplemented with 10% heat-inactivated fetal bovine serum, Eagle's minimum essential medium nonessential amino acids, 20 mM 4-(2-hydroxyethyl)-1-piperazineethanesulfonic acid, 2mM glutamine, and penicillin-streptomycin (Gibco). The medium was changed every 48 hours.
LS-174T cells were seeded at a density of 2×10^5 / 60 mm dish. […] At desired times, cell counts were performed in duplicate on a Coulter Counter after harvesting cells with gentle trypsinization.
The percentage growth inhibition values shown at 10
and 50 μM analogue concentrations were determined from
the dose-response curve experiments like those shown in
FIG. 1 and represent an average value obtained for each
analogue from two or more separate experiments. Sp-6-SET-

[6] = biological target: T3, Protein kinase type II (cAKII) (Bos taurus, UniProt P00515); assay: Protein kinase activation (Table 15); type: biochemical, bovine (heart); conditions: half-maximum activation; U. M.: unmeasurable
T3 construct: prepared from rabbit skeletal muscle and bovine heart; from tissue; host or cells: bovine heart
T3 sequence (P00515 2-401 limits assumed): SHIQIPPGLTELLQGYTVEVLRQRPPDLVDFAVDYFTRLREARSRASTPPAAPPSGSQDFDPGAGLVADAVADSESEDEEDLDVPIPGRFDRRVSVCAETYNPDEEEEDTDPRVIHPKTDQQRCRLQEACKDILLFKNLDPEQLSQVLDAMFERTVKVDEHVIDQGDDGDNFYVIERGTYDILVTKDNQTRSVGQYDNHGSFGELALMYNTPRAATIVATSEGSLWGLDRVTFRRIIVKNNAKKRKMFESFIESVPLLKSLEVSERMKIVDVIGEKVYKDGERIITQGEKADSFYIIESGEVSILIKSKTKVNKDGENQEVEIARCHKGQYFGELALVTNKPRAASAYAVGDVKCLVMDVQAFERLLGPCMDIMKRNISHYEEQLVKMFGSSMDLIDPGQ
Description: (§9) ATP to Kemptide as described by Ogreid et al., Eur. J. Biochem. 150: 219-227 (1985).
(§10) Protein kinases types I (cAKI) and II (cAKII) were
(§11) prepared from rabbit skeletal muscle and bovine heart,
(§12) respectively, as described in D.o slashed.skeland et al. (J. Biol.
(§13) of the protein kinase in Ogreid et al. (Eur. J. Biochem.

[7] = system: LS-174T human colon carcinoma cells; assay: Additive growth inhibition with 8-Cl-cAMP (Table 19); type: cell-based
Description: The medium was changed every 48 hours.
At desired times, cell counts were performed in duplicate on a Coulter Counter after harvesting cells with gentle trypsinization.
The analogues were added at 24

HL-60 Cells = assay: Cell cycle kinetics of HL-60 cells (Table 17); type: cell-based, human; conditions: for % G2 M: control 8.3; for % G0-G1: control 45.7; for % S: control 46
Description: as §8

[8] = biological target: T4, Protein kinase type I (cAKI) (Oryctolagus cuniculus, UniProt G1TDN4); assay: Protein kinase activation (Table 15); type: biochemical, rabbit (skeletal muscle); conditions: half-maximum activation; U. M.: unmeasurable
T4 construct: prepared from rabbit skeletal muscle and bovine heart; from tissue; host or cells: rabbit skeletal muscle
T4 sequence (G1TDN4 1-381): as the sequence (G1TDN4 1-381) above
Description: as §9, §10, §11, §12, §13

[9] = system: HL-60 human leukemia cells; assay: Growth inhibition of HL-60 leukemia cells (Example 3, Table 16); type: cell-based; conditions: for IC50: Homo sapiens; for fold less potent than 8-Cl-cAMP: growth inhibition HL-60, day 6
Description: HL-60 leukemic cells were obtained from the American Type Culture Collection (Rockville, Md.) and were grown in suspension culture in RPMI 1640 supplemented with 10% heat-inactivated fetal bovine serum, streptomycin (500 μg/ml), penicillin (50 units/ml), and glutamine (1 mM) (Gibco, Grand Island, N.Y.).
Cell counts were performed at desired times on a Coulter Counter.
The IC50 values were determined from the dose-
represent an average value obtained for each analogue
from two or more separate experiments carried out from 3
days or 6 days. Initial cell number, 1 × 10^5 /dish.
Typical numbers of untreated control cells at day 3 and
viability in treated and control cells.

Nc1ncnc2c1nc(Cl)n2[C@@H]1O[C@@H]2CO[P@@](O)(=S)O[C@H]2[C@H]1O [Rp-8-Cl-cAMPS, Rp-(equatorial exocyclic sulfursubstitution) 8-chloro-adenosine 3': 5'-monophosphorothioate]
relative affinity Ki (cAMP)/Ki (analogue), RII Site A ([1]; Site A (Site 2)): 0.00028 | relative affinity Ki (cAMP)/Ki (analogue), RII Site B ([1]; Site B (Site 1)): 0.44 | decrease in affinity for Site A of RII vs corresponding cyclophosphate ([1]; vs cyclophosphate): 180 fold | decrease in affinity for Site B of RII vs corresponding cyclophosphate ([1]; vs cyclophosphate): 10 fold | hydrolysis by phosphodiesterase [2]: resistant to hydrolysis | relative affinity Ki (cAMP)/Ki (analogue), RI Site A ([3]; Site A (Site 2)): 0.0079 | relative affinity Ki (cAMP)/Ki (analogue), RI Site B ([3]; Site B (Site 1)): 0.0042 | decrease in affinity for Site A of RI vs corresponding cyclophosphate ([3]; vs cyclophosphate): 340 fold | decrease in affinity for Site B of RI vs corresponding cyclophosphate ([3]; vs cyclophosphate): 480 fold | affinity for cAMP receptor protein / protein kinase [4]: reduced affinity for the cAMP receptor protein | viability at 50 µM (HL-60 leukemia cells; read-out: cell viability): 90% | fold induction at 50 µM (HL-60 leukemia cells; read-out: increase of HLA-DR over control): 2 | fold induction at 50 µM (HL-60 leukemia cells; read-out: increase of Leu-15 over control): 3 | inhibition at 10 µM ([5]; Homo sapiens, LS174T): 48% | inhibition at 50 µM ([5]; Homo sapiens, LS174T): 70% | growth inhibitory potency ([5]; LS-174T): greatest inhibition of cell growth | Activation Constant (Ka), cAKII [6]: U. M. | inhibition at 5 µM ([7]; Homo sapiens, LS174T, 96 h, 5 μM, 4 days): 34% | inhibition at 10 µM ([7]; Homo sapiens, LS174T, 96 h, 10 μM, 4 days): 48% | inhibition at 200 µM ([7]; Homo sapiens, LS174T, 96 h, 200 μM, 4 days): 80% | effect on growth-inhibitory effect of 8-Cl-cAMP ([7]; with 8-Cl-cAMP): additive effect | % G2 M (HL-60 Cells; 10 μM, 96 hours): 9.8% | % G0-G1 (HL-60 Cells; 10 μM, 96 hours): 43.5% | % S (HL-60 Cells; 10 μM, 96 hours): 46.7% | % G2 M (HL-60 Cells; 50 μM, 96 hours): 9.0% | % G0-G1 (HL-60 Cells; 50 μM, 96 hours): 41.6% | % S (HL-60 Cells; 50 μM, 96 hours): 49.4% | % G2 M (HL-60 Cells; 100 μM, 96 hours): 10.9% | % G0-G1 (HL-60 Cells; 100 μM, 96 hours): 37.9% | % S (HL-60 Cells; 100 μM, 96 hours): 51.2% | toxic effect (HL-60 Cells; 100 μM, 96 hours, footnote b): Toxic effect | cell cycle phase distribution (HL-60 Cells; HL-60, 96 hours in Table 17): not appreciably different; also recorded: did not bring about any change in cell cycle phase | Activation Constant (Ka), cAKI [8]: U. M. | growth inhibitory potency ([9]; HL-60): less inhibitory than 8-Cl-cAMP but was more potent than Sp-8-Cl-cAMPS | IC50 ([9]; HL-60, 72 h, read-out: Growth inhibition (IC50), Day 3): 16 µM | IC50 ([9]; HL-60, 144 h, read-out: Growth inhibition (IC50), Day 6): 3 µM | fold less potent than 8-Cl-cAMP [9]: about 10 fold | fold less potent than 8-Cl-cAMP ([9]; listed as Rp-phosphorothioate of 8-Cl-cAMP): 10 fold | growth inhibitory effect greater than that of Sp-8-Cl-cAMPS ([9]; vs Sp-8-Cl-cAMPS): 3 fold
